Laboratory results as given in patent US9980951B2, “Image guided therapy for cancer” (UNIVERSITY OF IOWA RESEARCH FOUNDATION, priority 2015, dated 2018).
Where “and” joins values, the source holds several entries; their conditions need not be identical. Equal entries are not always repeated.

Key:
A375 melanoma cells [1] = assay: JC-1 mitochondrial membrane potential assay; format: cell-based, human; conditions: A375, 10 μM, 1 h
Description: (§1) JC-1 mitochondrial membrane potential assays were used to determine that TPVP derivatives are designed to accumulate in melanoma cell mitochondria and disrupt the membrane potential of melanoma cells relative to nonmalignant cells (FIG. 2).
(§2) Mitochondrial membrane potential is an important parameter of mitochondrial function. In healthy cells (with high mitochondrial potential), JC-1 spontaneously forms complexes known as J-aggregates that fluoresce in the red region. In unhealthy cells with a low mitochondria membrane potential or cells whose membrane integrity is disrupted with uncoupling agents (e.g., FCCP), JC-1 remains in the monomeric form, with fluorescence in the green region. Therefore, the ratio of Jaggregate to monomer fluorescence is an indicator of mitochondrial membrane potential and cellular health.
(§3) Experiments were performed using human metastatic BRAFV600E mutant A375 (ATCC CRL-1619) human melanoma cells, metastatic BRAFV600E mutant SK-Mel-3 (ATCC HTB-69) human melanoma cells isolated from a lymph node metastasis, and nonmetastatic normal human fibroblasts (NHFs) provided by the Coriell Institute (AG13442). All cells were cultured at 21% O2 at 37° C. in a humidified 5% CO2 incubator. Cells were detached with 0.25% trypsin-EDTA. A375 and NHF cells were cultured in high-glucose DMEM medium supplemented with 1% PenStrep and 10% FBS. SK-Mel-3 cells were cultured in high-glucose McCoy's 5A medium supplemented with 1% PenStrep and 15% FBS. All medium components were purchased from Gibco.
(§4) A375 cells were plated in a black, clear-bottom 96 well plate at a density of 1.5×10^4 cells per well. SK-Mel-3 and NHF cells were plated in a black, clear-bottom 96 well plate at a density of 2.5×10^4 cells […]. After 24 h, cells were treated with 2.5, 5.0, or 10 μM 18:2-TPVP or DPDVP for 1 h. Cells were then washed and incubated with 2.0 μM JC-1 (Cayman) in PBS containing 5 mM pyruvate (Gibco) for 1 h. Control dishes were treated with 1.0 μM FCCP (Sigma-Alrich) 30 min prior to measurement. Cells were washed and analyzed in PBS using a spectrophotometer at 530 and 590 nm.

SK-Mel-3 melanoma cells [2] = assay: JC-1 mitochondrial membrane potential assay; format: cell-based, human; conditions: SK-Mel-3, 10 μM, 1 h
Description: as §1, §2, §3, §4

[3] = tested on: normal human fibroblasts (NHFs); assay: JC-1 mitochondrial membrane potential assay; format: cell-based; conditions: 10 μM, 1 h
Description: as §1, §2
Experiments were performed using human metastatic BRAFV600E mutant A375 (ATCC CRL-1619) human melanoma cells, metastatic BRAFV600E mutant SK-Mel-3 (ATCC HTB-69) human melanoma cells isolated from a lymph node metastasis, and nonmetastatic normal human fibroblasts (NHFs) provided by the Coriell Institute (AG13442). All cells were cultured at 21% O2 at 37° C. in a humidified 5% CO2 incubator. […]
A375 cells were plated in a black, clear-bottom 96 well plate at a density of 1.5×10^4 cells per well. […] Cells were washed and analyzed in PBS using a spectrophotometer at 530 and 590 nm.

A375 melanoma cells [4] = assay: Intracellular ATP measurement (CellTiter-Glo luciferase assay); format: cell-based, human; conditions: 24 h; for concentration of ATP relative to the untreated control: A375, 2.5, 5.0, or 10 μM
Experimental: (§5) TPVP derivatives embed in the mitochondria of malignant cells and increase the oxidation state relative to NHFs. Therefore, intracellular ATP levels were measured to determine the potential impact of TPVP-based treatment on cell viability (FIG. 4). This platereader-based luciferase assay is a selective method for determining the number of viable cells by quantifying the ATP-dependent oxygenation of luciferin. […] Specifically, A375 ATP levels were depleted from 1.5 mM to less than 0.8 mM after exposure to all three compounds at 10 μM.
as §3
(§6) A375 cells were plated in 60 mm culture dishes at a density of 1.5×10^5 cells per dish. SK-Mel-3 and NHF cells were plated in 60 mm culture dishes at a density of 2.5×10^5 cells per dish. After 48 h, cells were exposed to 2.5, 5.0 or 10 μM of PTVP, DPDVP, or 18:2-TPVP for 24 h and analyzed for intracellular ATP content using the CellTiter-Glo Luminescent Cell Viability Assay (Promega).

SK-Mel-3 melanoma cells [5] = assay: as above; format: cell-based, human; conditions: SK-Mel-3, 5.0 μM and 10 μM, 24 h
Experimental: as §5, §3, §6

A375 melanoma cells [6] = assay: Clonogenic survival assay; format: cell-based, human; conditions: 24 h; for clonogenic survival relative to the untreated control: A375, 5.0, 7.5, and 10 μM
Experimental: (§7) To further test the hypothesis that TPVP derivatives can be designed to decrease viability in melanoma cells relative to normal cells, clonogenic survival assays were performed (FIG. 6). The clonogenic cell survival assay is used often as a measure of the ability of cells to proliferate indefinitely. In these studies, cells were exposed to varying concentrations of TPVP derivatives for 24 h. After exposure to cytotoxic compounds, cells were collected, counted, and reseeded at a low density. The cells then undergo a series of doublings, forming cell colonies. These colonies were then counted, and the resulting cell survival curve reports the dose of the agent used to produce an insult and the fraction of cells retaining their ability to reproduce. […] Specifically, 18:2-TPVP decreases clonogenic survival to <50% at 5.0 μM for both A375 and SK-Mel-3 cells and <20% at 7.5 μM.
as §3
(§8) A375 cells were plated in 60 mm culture dishes at a density of 1.5×10^5 cells per dish. SKMel-3 and NHF cells were plated in 60 mm culture dishes at a density of 2.5×10^5 cells per dish. After 48 h, cells were treated with 1.0, 2.5, 5.0, 7.5, or 10 μM of PTVP, DPDVP, or 18:2-TPVP for 24 h. After the exposure period, cells were collected, counted, and plated at either 500 (A375 and NHF) or 3000 (SK-Mel-3) cells per 60 mm dish. Following a 2 week incubation, medium was removed and colonies fixed with ethanol and stained with Coommassie Brilliant Blue. Data were normalized to each untreated control, and the surviving fraction was reported.

SK-Mel-3 melanoma cells [7] = assay: Clonogenic survival assay; format: cell-based, human; conditions: 24 h; for clonogenic survival relative to the untreated control: SK-Mel-3, 5.0, 7.5, and 10 μM
Experimental: as §7, §3, §8

[8] = tested on: normal human fibroblasts (NHFs); assay: Clonogenic survival assay; format: cell-based; conditions: NHF, 5.0 μM, 24 h
Experimental: as §7, with “μM. […]” for “μM.”
A375 cells were plated in 60 mm culture dishes at a density of 1.5×10^5 cells per dish. […] After the exposure period, cells were collected, counted, and plated at either 500 (A375 and NHF) or 3000 (SK-Mel-3) cells per 60 mm dish. […]

A375 melanoma cells [9] = assay: Confocal microscopy, mitochondrial accumulation and colocalization with Mito Tracker Red; format: cell-based, human; conditions: A375, 1 μM, 3 h
Experimental: (§9) Confocal microscopy was used to determine that 10-TPVP preferentially accumulates in the mitochondria of melanoma cells and fluoresces upon aggregation in mitochondrial membranes of melanoma cells relative to nonmalignant cells (FIG. 1). […] NHF cells have a basal level of 10-TPVP accumulation, supporting the hypothesis that TPVP derivatives preferentially accumulate by targeting the hyperpolarized mitochondrial membrane (FIG. 1; Column II).
as §3
(§10) A375, SK-Mel-3, and NHF cells were cultured at a density of 2.5×104, 5×104, or 7.5×104, respectively, on a 4 well glass chamber slide for 24 h prior to exposure to test compounds. […]

SK-Mel-3 melanoma cells [10] = assay: as above; format: cell-based, human; conditions: SK-Mel-3, 1 μM, 3 h
Experimental: as §9, §3, §10

[11] = tested on: normal human fibroblasts (NHFs); assay: as above; format: cell-based; conditions: 1 μM, 3 h
Experimental: as §9, §3, §10

A375 melanoma cells [12] = assay: DHE oxidation; format: cell-based, human; conditions: A375, 10 μM, 1 h, normalized to untreated control
Description: (§11) Oxidation-sensitive dihydroethidium (DHE) was used to determine if mitochondrial-accumulated TPVP derivatives alter the oxidation state of melanoma cells (FIG. 3). DHE is a blue-fluorescent superoxide-sensitive probe that accumulates in the cytosol of healthy cells. However, upon reaction with superoxide, DHE intercalates with DNA and forms a red-fluorescent product (2-hydroxyethidium). Therefore, the shift to red fluorescence is an indicator of the change in the redox state of the cell.
as §3
(§12) A375 cells were plated in a black, clearbottom 96 well plate at a density of 1.5×10^4 cells per well. […] Cells were analyzed using a spectrophotometer at 590 nm.

SK-Mel-3 melanoma cells [13] = assay: DHE oxidation; format: cell-based, human; conditions: SK-Mel-3, 10 μM, 1 h, normalized to untreated control
Description: as §11, §3, §12

[14] = tested on: normal human fibroblasts (NHFs); assay: DHE oxidation; format: cell-based; conditions: 10 μM, 1 h
Description: as §11, §3, §12

| SMILES | decrease of JC-1 aggregate to monomer fluorescence ratio (A375 melanoma cells [1]) [%] | decrease of JC-1 aggregate to monomer fluorescence ratio (SK-Mel-3 melanoma cells [2]) [%] | decrease of JC-1 aggregate to monomer fluorescence ratio [3] [%] | concentration of ATP relative to the untreated control (A375 melanoma cells [4]) | clonogenic survival relative to the untreated control (A375 melanoma cells [6]) | clonogenic survival relative to the untreated control (SK-Mel-3 melanoma cells [7]) | also measured |
| --- | --- | --- | --- | --- | --- | --- | --- |
| CCCCC/C=C\C/C=C\CCCCCCCC[n+]1ccc(C(=C(c2ccccc2)c2ccccc2)c2ccccc2)cc1.[Br-] [18:2-TPVP, 1-((9Z,12Z)-Octadeca-9,12-dien-1-yl)-4-(1,2,2-triphenylvinyl)pyridin-1-ium Bromide] | 55 | 40 | 20 | significantly decreases | significantly decrease | significantly decrease | intracellular ATP relative to NHFs (A375 melanoma cells [4]; A375, all concentrations (1, 5, or 10 μM)): significantly decreases; intracellular ATP relative to NHFs (SK-Mel-3 melanoma cells [5]): significantly decreases; clonogenic survival (A375 melanoma cells [6]; A375, 5.0 μM): < 50% and 40%; clonogenic survival (A375 melanoma cells [6]; A375, 7.5 μM): < 20%; clonogenic survival relative to NHFs (A375 melanoma cells [6]; A375, 2.5, 5.0, 7.5, and 10 μM): significant decrease; clonogenic survival (SK-Mel-3 melanoma cells [7]; SK-Mel-3, 5.0 μM): < 50% and 30%; clonogenic survival (SK-Mel-3 melanoma cells [7]; SK-Mel-3, 7.5 μM): < 20%; clonogenic survival relative to NHFs (SK-Mel-3 melanoma cells [7]; SK-Mel-3, 2.5, 5.0, 7.5, and 10 μM): significant decrease; clonogenic survival [8]: 75% |
| CCCCCCCCCC[n+]1ccc(C(=C(c2ccccc2)c2ccccc2)c2ccccc2)cc1.[Br-] [Compound 10-TPVP, 1-Decyl-4-(1,2,2-triphenylvinyl)pyridin-1-ium Bromide] |  |  |  |  |  |  | accumulation in cells by confocal microscopy (A375 melanoma cells [9]): easily observable; accumulation in cells by confocal microscopy (SK-Mel-3 melanoma cells [10]): easily observable; accumulation in mitochondria by confocal microscopy [11]: does not significantly accumulate; increase of DHE oxidation (A375 melanoma cells [12]): 3 fold; increase of DHE oxidation (SK-Mel-3 melanoma cells [13]): 2 fold; DHE fluorescence intensity [14]: does not significantly alter |
| CCCCCCCCCC[n+]1ccc(C(=C(c2ccccc2)c2ccccc2)c2cc[n+](CCCCCCCCCC)cc2)cc1.[Br-].[Br-] [DPDVP, 4,4′-(2,2-Diphenylethene-1,1-diyl)bis(1-decylpyridin-1-ium) Bromide] | 50 | 30 | 10 | significantly decreases | significantly decrease | significantly decrease |  |
| CCCCCCCCCC[n+]1ccc(C(=C(c2cc[n+](CCCCCCCCCC)cc2)c2cc[n+](CCCCCCCCCC)cc2)c2ccccc2)cc1.[Br-].[Br-].[Br-] [PTVP, 4,4′,4″-(2-Phenylethene-1,1,2-triyl)tris(1-decylpyridin-1-ium) Bromide] |  |  |  | significantly decreases | significantly decrease | significantly decrease |  |
